EC50 data for 66 molecules are collected here from patent US9809602B2, “Compounds for treating viral infections” (INSTITUT PASTEUR KOREA, priority 2014, dated 2017).

pEC50: −log10 of the molar value.

The first assay has as its system genotype 1/2 chimeric cell culture derived HCV (HCVcc). As to the kind of experiment: Genotype 1/2 chimeric HCVcc assay (nano-luciferase, HCV replication). Type of assay: cell-based. As to conditions: Hepatitis C virus. The procedure: Naïve Huh-7.5 target cells were plated at 2400 cells/well in 25 μL of culture media in 384-well plates (Greiner bio-one, μ clear black). After overnight incubation, compounds serially diluted in 10 μL of cell culture media were added. After 2 h compound treatment, cells were inoculated with 40 μL of genotype 1/2 chimeric cell culture derived HCV (HCVcc) which express structural proteins of an HCV genotype 1a isolate (TN accession number EF621489) and non-structural proteins of HCV genotype 2a (JFH-1) with nano-luciferase reporter. At 72 h post infection, nano-luciferase activity (Nano-Glo™, Promega) and cellular ATP (Cell titer-Glo™, Promega) were measured as a marker for HCV replication and cytotoxicity, respectively. EC50 and CC50 were calculated by non-linear regression analyzing using GraphPad Prism (GraphPad Software).
As usually defined, the pEC50 is the EC50 on a negative log10 scale, so that one unit is a factor of ten. As to `O=C(NCCCN1CCC(N2CCCCC2)CC1)c1ccc(-c2ccc(C(F)(F)F)cc2)s1` [Compound 1081], the pEC50 is 6.00 to 7.00. As to `O=C(NCCCN1CCCC1)c1ccc(C2CCCCC2)cc1` [Compound 1006], the negative-log EC50 (pEC50) was 5.00 to 6.00.

Molecule `CN(C)C1CCN(CCCNC(=O)c2ccc(Oc3ccccc3)cc2)CC1` [Compound 1068] had a pEC50 of 6.00 to 7.00.

As to `O=C(CCCN1CCC(N2CCCCC2)CC1)Nc1ccc(-c2ccc(C(F)(F)F)cc2)nc1` [Compound 1116], the pEC50 was 6.00 to 7.00. Regarding `O=C(NCCCN1CCC(N2CCCCC2)CC1)c1ccc(Nc2ccccc2)cc1` [Compound 1070], the pEC50 is 5.00 to 6.00. Regarding `O=C(NCCCN1CCC(N2CCCCC2)CC1)c1ccc(-c2ccc([N+](=O)[O-])cc2)cc1` [Compound 1122], the negative logarithm of the EC50 (pEC50) is 6.00 to 7.00. Same read-out and setting: for `O=C(NCCCN1CCC(N2CCCCC2)CC1)c1ccc(OCc2ccc(F)cc2)cc1` [Compound 1043] the value was 5.00 to 6.00; for `O=C(NCCCN1CCN(C2CCCCC2)CC1)c1ccc(Oc2ccccc2)cc1` [Compound 1037], below 5.00; for `CN(C)c1ccc(-c2ccc(C(=O)NCCCN3CCC(N4CCCCC4)CC3)c(Cl)c2)cc1` [Compound 1154], 6.00 to 7.00. `O=C(NCCCN1CCC(N2CCCCC2)CC1)c1ccc(-c2ccc(OC(F)(F)F)cc2)cc1` [Compound 1119] gave a pEC50 of 6.00 to 7.00.

Regarding `COc1ccc(-c2ccc(C(=O)NCCCN3CCC(N4CCCCC4)CC3)cc2)cc1` [Compound 1022], the pEC50 is above 7.00. As to `CC(C)C1CCN(C2CCN(CCCNC(=O)c3ccc(Oc4ccccc4)cc3)CC2)CC1` [Compound 1069], the pEC50 was 6.00 to 7.00. The same measure, in the same setting: for `O=C(NCCCN1CCC(N2CCCCC2)CC1)c1ccc(-c2ccc(C(F)(F)F)cc2)cc1Cl` [Compound 1112] the value was 6.00 to 7.00. On the same count and under the same terms, for `CN(C)c1ccc(Oc2ccc(C(=O)NCCCN3CCC(N4CCCCC4)CC3)cc2)cc1` [Compound 1110] the value was 6.00 to 7.00; for `O=C(NCCCN1CCN(C(=O)C2CCCCC2)CC1)c1ccc(Oc2ccccc2)cc1` [Compound 1038], below 5.00; for `COc1cc(NC(=O)CCCN2CCC(N3CCCCC3)CC2)ccc1-c1ccc(C(F)(F)F)cc1` [Compound 1157], 6.00 to 7.00. On to `O=C(NC/C=C/CN1CCC(N2CCCCC2)CC1)c1ccc(-c2ccc(C(F)(F)F)cc2)cc1` [Compound 1117], for which the pEC50 was 6.00 to 7.00.

As for `O=C(NCCCN1CCC(N2CCCCC2)CC1)c1ccc(C2CCCCC2)cc1` [Compound 1003], the pEC50 is 6.00 to 7.00. Regarding `O=C(NCCCN1CCC(Oc2ccccc2)CC1)c1ccc(Oc2ccccc2)cc1` [Compound 1056], the pEC50 was 5.00 to 6.00.

`O=C(NCCOCCN1CCC(N2CCCCC2)CC1)c1ccc(Oc2ccccc2)cc1` [Compound 1077] had a negative logarithm of the EC50 (pEC50) of 5.00 to 6.00.

The assay is the same for the next values; noted with them: Hepatitis C virus, Huh7.5, 72 h.
Consider `CCOC(=O)c1c(NC(=O)NCc2c(Br)sc3c2CCNC3)sc2c1CC(C)CC2C` (stereo not drawn) [Compound 207], for which the pEC50 is above 7.00. `CC(C)(C)OC(=O)c1c(NC(=O)NCc2c(-c3ccc(Cl)cc3)sc3c2CCNC3)sc2c1CCCC2` [Compound 179] showed a negative logarithm of the EC50 (pEC50) above 7.00. With `Cc1sc(NC(=O)NCc2c(-c3ccoc3)sc3c2CCNC3)c(C(=O)OC(C)(C)C)c1C` [Compound 332], the pEC50 was above 7.00. The molecule `CC(C)(C)OC(=O)c1c(NC(=O)NCc2c(-c3ccc(C(F)(F)F)cc3)sc3c2CCNC3)sc2c1CCCC2` [Compound 146] showed a negative logarithm of the EC50 (pEC50) above 7.00. `CCOC(=O)c1c(NC(=O)NCc2c(Br)sc3c2CCNC3)sc(C)c1C` [Compound 133] gave a pEC50 above 7.00.

In turn, `CCOC(=O)c1c(NC(=O)NCc2c(-n3cccc3)sc3c2CCN(CC)C3)sc2c1CCC2` [Compound 57] showed a pEC50 above 7.00. Same read-out and setting: as for `Cc1sc(NC(=O)NCc2c(-n3c(C)ccc3C)sc3c2CCNC3)c(C(=O)OC(C)(C)C)c1C` [Compound 352], the figure is 5.00 to 6.00.

`CCOC(=O)c1c(NC(=O)NCc2c(N3C(=O)CCC3=O)sc3c2CCN(CC)C3)sc2c1CCCC2` [Compound 31] had a pEC50 of 6.00 to 7.00. The molecule `CCN1CCc2c(sc(-n3cccc3)c2CNC(=O)Nc2sc3c(c2C(=O)OC(C)(C)C)CCCC3)C1` [Compound 14] had a pEC50 above 7.00. Still for that read-out and setting: for `CC1Cc2c(sc(NC(=O)NCc3c(Br)sc4c3CCNC4)c2C(=O)OC(C)(C)C)C(C)C1` (stereo not drawn) [Compound 267] the value was above 7.00; for `CC(C)(C)OC(=O)c1c(NC(=O)NCc2c(-c3ccc(F)cc3)sc3c2CCNC3)sc2c1CCCC2` [Compound 159], above 7.00; for `CC(C)(C)OC(=O)c1c(NC(=O)NCc2c(Br)sc3c2CCNC3)sc2c1CCCC2` [Compound 116], above 7.00. Take `CC1CCCc2sc(NC(=O)NCc3c(-n4cccc4)sc4c3CCN(C)C4)c(C(=O)OC(C)(C)C)c21` (stereo not drawn) [Compound 291]: the pEC50 is above 7.00.

The molecule `CC(C)(C)OC(=O)c1c(NC(=O)NCc2c(-c3ccc(Cl)nc3)sc3c2CCNC3)sc2c1CCCC2` [Compound 307] showed a negative-log EC50 (pEC50) above 7.00. Take `COC(=O)c1c(NC(=O)NCc2c(C(F)(F)F)sc3c2CCNC3)sc2c1CCCC2` [Compound 129]: the pEC50 was above 7.00. `CC(C)(C)OC(=O)c1c(NC(=O)NCc2c(-n3cccc3)sc3c2CCN(C2CC2)C3)sc2c1CCCC2` [Compound 334] gave a pEC50 above 7.00. `CCN1CCc2c(sc(-n3cccc3)c2CNC(=O)Nc2sc3c(c2C(=O)OC(C)(C)C)C(C)CCC3)C1` (stereo not drawn) [Compound 292] gave a pEC50 above 7.00.

As for `CCOC(=O)c1c(NC(=O)NCc2c(C(F)(F)F)sc3c2CCN(C(=N)N)C3)sc2c1CCCC2` [Compound 341], the pEC50 is above 7.00. In turn, `CC(C)(C)OC(=O)c1c(NC(=O)NCc2c(-n3cccc3)sc3c2CCN(C2COC2)C3)sc2c1CCCC2` [Compound 261] gave a pEC50 above 7.00. Consider `CCc1sc2c(c1CNC(=O)Nc1sc3c(c1C(=O)OC(C)(C)C)CCC3)CCNC2` [Compound 314], for which the pEC50 was above 7.00.

Molecule `Cc1sc(NC(=O)NCc2c(C(F)(F)F)sc3c2CCN(C)C3)c(C(=O)OC(C)C)c1C` [Compound 295] showed a pEC50 above 7.00. For the molecule `CCOC(=O)c1cc(C(C)C)sc1NC(=O)NCc1c(-n2cccc2)sc2c1CCN(CC)C2` [Compound 24], the pEC50 is 6.00 to 7.00. Same read-out and setting: as for `CCOC(=O)c1c(N(C)C(=O)NCc2c(-n3cccc3)sc3c2CCN(CC)C3)sc2c1CCCC2` [Compound 55], the figure is 5.00 to 6.00; as for `CCOC(=O)c1c(NC(=O)NCc2c(C)sc3c2CCNC3)sc2c1CCCC2` [Compound 107], above 7.00. `CC(C)(C)OC(=O)c1c(NC(=O)NCc2c(C(F)(F)F)sc3c2CCNC3)sc2c1CCOC2` [Compound 238] had a pEC50 above 7.00. Same read-out and setting: as for `CCOC(=O)c1c(NC(=O)NCc2c(-n3cccc3)sc3c2CCN(CC)C3)sc2c1C(C)CCC2` (stereo not drawn) [Compound 151], the figure is above 7.00. For the molecule `CCc1sc2c(c1CNC(=O)Nc1sc3c(c1C(=O)OC(C)(C)C)CCC(C)C3)CCNC2` (stereo not drawn) [Compound 289], the pEC50 is above 7.00. For `C=CCCOC(=O)c1c(NC(=O)NCc2c(C(F)(F)F)sc3c2CCNC3)sc2c1CCCC2` [Compound 275], the negative-log EC50 (pEC50) is above 7.00. On the same count and under the same terms, for `CN1CCc2c(sc(C(F)(F)F)c2CNC(=O)Nc2sc3c(c2C(=O)OC(C)(C)C)CCC3)C1` [Compound 278] the value was above 7.00; for `O=C(NCc1c(C(F)(F)F)sc2c1CCNC2)Nc1sc2c(c1C(=O)OC1CCCCC1)CCCC2` [Compound 272], above 7.00; for `Cc1sc(NC(=O)NCc2c(Br)sc3c2CCN(C)C3)c(C(=O)OC(C)C)c1C` [Compound 297], above 7.00. On to `CC(C)N1CCc2c(sc(C(F)(F)F)c2CNC(=O)Nc2sc3c(c2C(=O)OC(C)(C)C)CCCC3)C1` [Compound 186], for which the pEC50 is above 7.00. Still for that read-out and setting: as for `CC(C)(C)OC(=O)c1c(NC(=O)NCc2c(-c3ccc(C(F)(F)F)nc3)sc3c2CCNC3)sc2c1CCCC2` [Compound 131], the figure is 6.00 to 7.00. Still for that read-out and setting: for `CCOC(=O)c1c(NC(=O)NCc2csc(CN(C)C)c2C)sc2c1CCCC2` [Compound 188] the value was above 7.00; for `CC(C)OC(=O)c1c(NC(=O)NCc2c(C(F)(F)F)sc3c2CCNC3)sc2c1CCCC2` [Compound 167], above 7.00; for `CCN1CCc2c(sc(-n3cccc3)c2CNC(=O)Nc2sc3c(c2C(=O)NCCCCNC(=O)OC(C)(C)C)CCCC3)C1` [Compound 90], 5.00 to 6.00. As to `CCN1CCc2c(sc(C(F)(F)F)c2CNC(=O)Nc2sc3c(c2C(=O)OC)CCCC3)C1` [Compound 178], the pEC50 was above 7.00.

For `CCc1c(C)sc(NC(=O)NCc2c(-n3cccc3)sc3c2CCNC3)c1C(=O)OC(C)(C)C` [Compound 269], the pEC50 is above 7.00. Turning to `CC(C)(C)OC(=O)c1c(NC(=O)NCc2c(C(F)(F)F)sc3c2CCNC3)sc2c1CCC1(C2)OCCO1` [Compound 311], the pEC50 was above 7.00. Turning to `CCN1CCc2c(sc(-n3cccc3)c2CNC(=O)Nc2sc3c(c2C(=O)OC)CCCC3)C1` [Compound 127], the negative-log EC50 (pEC50) was above 7.00. The molecule `CCOC(=O)c1c(NC(=O)NCc2c(Br)sc3c2CCNC3)sc2c1CCC(F)(F)C2` [Compound 218] showed a pEC50 above 7.00.

Regarding `CCOC(=O)c1c(NC(=O)NCc2c(C(F)(F)F)sc3c2CCN(C(=O)CN)C3)sc2c1CCCC2` [Compound 305], the pEC50 was above 7.00. For `CC(C)(C)OC(=O)c1c(NC(=O)NCc2c(-c3cccc(F)c3)sc3c2CCNC3)sc2c1CCCC2` [Compound 160], the pEC50 was above 7.00. The molecule `CCOC(=O)c1sc2c(c1NC(=O)NCc1c(-n3cccc3)sc3c1CCN(CC)C3)CCCC2` [Compound 109] had a negative logarithm of the EC50 (pEC50) of 5.00 to 6.00.

In the case of `CCOC(=O)c1c(NC(=O)NC(C)c2c(-n3cccc3)sc3c2CCN(CC)C3)sc2c1CCCC2` (stereo not drawn) [Compound 1], the pEC50 is 6.00 to 7.00. The molecule `CCN1CCc2c(sc(-n3cccc3)c2CNC(=O)Nc2sc3c(c2C(=O)OC(C)C)CCCC3)C1` [Compound 157] gave a pEC50 above 7.00.
